Data published in patent US11135153B2, “High penetration composition and uses thereof” (Techfields Pharma Co., Ltd., priority 2006, dated 2021).
Like-named read-outs stand apart in the source and are kept apart here.

Assays:
[1] = Aqueous solubility of HPPs and parent drugs; assay type: physicochemical
in vivo = details: mouse
[2] = In vitro penetration rate through human skin in modified Franz cells; assay type: in vitro ADME; details: isolated human skin 360-400 μm, 2 mL, 20% in 0.2 M phosphate buffer pH 7.4
Description: The penetration rates of HPPs of 4-aminophenol derivatives and their parent drugs through human skin were measured in vitro by modified Franz cells. […] The human skin tissue (360-400 μm thick) that separated the top and the receptor chambers was isolated from the anterior or posterior thigh areas.
The amount of the tested compound penetrating the skin was determined by high-performance liquid chromatography (HPLC) method.
The lowest detectable apparent flux values in this method was 1 μg/cm^2/h, the parent drugs tested (e.g. acetaminophen and acetaminosalol) had […], and the corresponding HPPs had higher apparent flux value.

[3] = Plasma levels of parent compounds after transdermal administration to hairless mice; assay type: in vivo; details: transdermal on 10 cm^2 back skin; for Plasma concentration of the parent compound (peak plasma level): 20% solution or suspension in 1 ml 70% ethanol; for t (time to peak plasma level of the parent compound): 20% in 1 ml 70% ethanol
Description: Test compounds (20% solution or suspension of HPPs or parent drugs in 1 ml of 70% ethanol) were administered transdermally to 10 cm^2 skin on the backs of hairless mice. The plasma levels of the parent compounds were determined by HPLC.

[4] = In vivo transportation: amounts in organs and tissue of rats after application to back skin; details: 6 hours after 20% in 1 mL 50% ethanol on 10 cm^2 back skin
Description: N-Acetyl-p-aminophenyl dimethylaminobutyrate.HCl (20% in 1 mL of 50% ethanol) was applied to about 10 cm^2 skin on the backs of rats (˜200 g). After 6 hours, the rats were terminated, and methanol (5 mL) was added to 1 g of tissue on the back of rat (under the skin), 1 ml of blood, 1 g of liver, 1 g of kidney, and 1 g of brain respectively (the tissue, liver, kidney or brain was washed with pH 7.2 buffer for three times) and the mixtures were homogenized. The samples were then centrifuged for 5 min and analyzed using HPLC.

rats = experiment: Antipyretic activity in rats given E. coli suspension as pyrogen; assay type: in vivo; details: 100 mg/kg transdermally
Description: Rats received a sterilized E. coli suspension as a pyrogen. The control group was group A. 2 hours later, N-acetyl-p-aminophenyl dimethylaminobutyrate.HCl (100 mg/kg, B) and 4-acetamidophenyl 2((4-(dimethylamino)butanoyl)oxy)benzoate.HCl, (100 mg/kg, C) were administered transdermally respectively. The body temperature of rats was taken at 90 min. intervals before and after the administration of the test compounds.

mice = experiment: Analgesic activity, acetic acid writhing inhibition; assay type: in vivo; details: 100 mg/kg transdermally, versus control group
Description: Acetic acid solution was administered intraperitoneally to a group of mice (6 mice every group) 120 minutes after a test compound was administered to the mice at the dosage specified in the tables below. The prodrug compounds were administered either transdermally or orally. N-acetyl-p-aminophenyl dimethylaminobutyrate.HCl (100 mg/kg, B) and 4-acetamidophenyl 2((4-(dimethylamino)butanoyl)oxy)benzoate.HCl, (100 mg/kg, C) were administered transdermally. The number of writhings that occurred when mice were administered the acetic acid solution were counted, and the rate of inhibition based on the control group which was not pretreated with any test compounds was calculated. […] Group A was the control group.

[5] = water (aqueous), read-out: Solubility

| Structure (SMILES) | solubility [1, 5] [mg/mL] | LD50 (in vivo) [mg/kg] | In vitro Penetration rate (apparent flux) [2] [μg/cm^2/h] | Plasma concentration of the parent compound (peak plasma level) [3] [ng/mL] | t (time to peak plasma level of the parent compound) ([3]; parent compound) [h] | solubility [1] [mg/mL] | t (time to peak plasma level of the parent compound) ([3]; prodrug compound) [h] | body temperature, t = 0 min. (rats) | body temperature, t = 90 min. (rats) | body temperature, t = 180 min. (rats) | body temperature, t = 270 min. (rats) | rate of writhings inhibition (mice) [%] | also measured |
| --- | --- | --- | --- | --- | --- | --- | --- | --- | --- | --- | --- | --- | --- |
| CC(=O)Nc1ccc(OC(=O)c2ccccc2O)cc1 [acetaminosalol, 4-acetamidophenyl salicylate, reference compound] | < 0.1 | 550 | 10 | 100 | ~5 | – | – | – | – | – | – | – | – |
| CC(=O)Nc1ccc(OC(=O)CCCN(C)C)cc1.Cl [N-Acetyl-p-Aminophenyl Dimethylaminobutyrate.HCl] | – | – | 1500 | 30000 | – | >400 | ~0.833 | 37.32 ± 0.06 | 36.61 ± 0.05 | 36.50 ± 0.08 | 36.50 ± 0.07 | 55 | N-acetyl-p-aminophenyl dimethylaminobutyrate detected in blood [4]: 10 ± 4 µg/g; N-acetyl-p-aminophenyl dimethylaminobutyrate detected in brain [4]: 3 ± 3 µg/g; N-acetyl-p-aminophenyl dimethylaminobutyrate detected in kidney [4]: 6 ± 4 µg/g; N-acetyl-p-aminophenyl dimethylaminobutyrate detected in liver [4]: 7 ± 4 µg/g; N-acetyl-p-aminophenyl dimethylaminobutyrate detected in under-skin tissue [4]: 15 ± 8 µg/g; acetaminophen detected in blood [4]: 30 ± 8 µg/g; acetaminophen detected in brain [4]: 10 ± 8 µg/g; acetaminophen detected in kidney [4]: 20 ± 10 µg/g; acetaminophen detected in liver [4]: 20 ± 10 µg/g; acetaminophen detected in under-skin tissue [4]: 60 ± 10 µg/g |
| CC(=O)Nc1ccc(O)cc1 [acetaminophen, N-Acetyl-p-aminophenol, reference compound] | < 0.2 | 340 | 10 | 100 | ~5 | – | – | – | – | – | – | – | – |
| CC(=O)Nc1ccc(OC(=O)c2ccccc2OC(=O)CCCN(C)C)cc1.Cl [4-acetamidophenyl 2((4-(dimethylamino)butanoyl)oxy)benzoate.HCl] | – | – | 1800 | 30000 | – | >400 | ~0.833 | 37.27 ± 0.06 | 36.63 ± 0.05 | 36.52 ± 0.08 | 36.50 ± 0.07 | 55 | – |
